Source: ChEMBL document CHEMBL1129317, “Novel selective and partial agonists of 5-HT3 receptors. Part 1. Synthesis and biological evaluation of piperazinopyrrolothienopyrazines” (J Med Chem, 1996)

Tests used:
[1] = biological target: 5-hydroxytryptamine receptor 1B (Rattus norvegicus, UniProt P28564); assay: Binding affinity for 5-hydroxytryptamine 1B receptor
[2] = biological target: T1, 5-hydroxytryptamine receptor 2C (Homo sapiens, UniProt P28335); assay: Binding affinity towards 5-hydroxytryptamine 2C receptor
T1 sequence (P28335 whole entry): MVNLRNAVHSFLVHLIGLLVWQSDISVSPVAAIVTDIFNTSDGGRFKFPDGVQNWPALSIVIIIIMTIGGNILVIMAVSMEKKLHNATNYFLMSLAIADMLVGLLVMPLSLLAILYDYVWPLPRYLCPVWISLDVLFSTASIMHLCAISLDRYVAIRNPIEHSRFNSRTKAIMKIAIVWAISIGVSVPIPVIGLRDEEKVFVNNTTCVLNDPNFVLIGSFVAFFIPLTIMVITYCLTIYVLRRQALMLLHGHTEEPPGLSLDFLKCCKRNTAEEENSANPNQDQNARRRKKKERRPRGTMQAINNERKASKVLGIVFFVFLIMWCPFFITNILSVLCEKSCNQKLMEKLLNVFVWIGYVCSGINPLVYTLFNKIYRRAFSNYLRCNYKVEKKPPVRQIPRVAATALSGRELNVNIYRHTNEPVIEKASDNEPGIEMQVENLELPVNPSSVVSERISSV

[3] = biological target: 5-hydroxytryptamine receptor 1D (Sus scrofa, UniProt P79400); assay: Binding affinity for 5-hydroxytryptamine 1D receptor
Chain of 5-hydroxytryptamine receptor 1D (P79400 whole entry): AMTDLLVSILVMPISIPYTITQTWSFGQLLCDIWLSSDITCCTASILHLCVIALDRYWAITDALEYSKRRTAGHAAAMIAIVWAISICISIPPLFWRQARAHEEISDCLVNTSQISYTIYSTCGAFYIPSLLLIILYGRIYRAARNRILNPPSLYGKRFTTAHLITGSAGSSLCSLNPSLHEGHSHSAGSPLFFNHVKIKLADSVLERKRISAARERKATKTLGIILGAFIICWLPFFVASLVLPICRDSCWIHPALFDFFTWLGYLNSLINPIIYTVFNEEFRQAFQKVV

[4] = biological target: T2, Serotonin 3 (5-HT3) receptor (Rattus norvegicus, UniProt P35563+Q9JJ16); assay: Binding affinity towards 5-hydroxytryptamine 3 receptor; type: protein-complex assay
T2 sequence (P35563 whole entry): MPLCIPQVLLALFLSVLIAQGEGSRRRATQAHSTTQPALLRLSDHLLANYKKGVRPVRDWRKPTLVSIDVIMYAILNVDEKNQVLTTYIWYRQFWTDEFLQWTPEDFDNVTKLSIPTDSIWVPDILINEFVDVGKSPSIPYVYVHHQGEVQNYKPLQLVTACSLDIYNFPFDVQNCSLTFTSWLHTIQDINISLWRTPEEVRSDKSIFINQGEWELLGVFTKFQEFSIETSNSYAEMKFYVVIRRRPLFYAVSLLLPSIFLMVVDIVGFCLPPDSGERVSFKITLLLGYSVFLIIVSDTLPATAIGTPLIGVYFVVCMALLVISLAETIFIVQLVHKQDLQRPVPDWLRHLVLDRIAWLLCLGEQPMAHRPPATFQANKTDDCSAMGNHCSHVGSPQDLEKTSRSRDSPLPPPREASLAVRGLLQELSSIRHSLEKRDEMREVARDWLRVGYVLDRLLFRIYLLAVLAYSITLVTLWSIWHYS
T2 sequence (Q9JJ16 whole entry): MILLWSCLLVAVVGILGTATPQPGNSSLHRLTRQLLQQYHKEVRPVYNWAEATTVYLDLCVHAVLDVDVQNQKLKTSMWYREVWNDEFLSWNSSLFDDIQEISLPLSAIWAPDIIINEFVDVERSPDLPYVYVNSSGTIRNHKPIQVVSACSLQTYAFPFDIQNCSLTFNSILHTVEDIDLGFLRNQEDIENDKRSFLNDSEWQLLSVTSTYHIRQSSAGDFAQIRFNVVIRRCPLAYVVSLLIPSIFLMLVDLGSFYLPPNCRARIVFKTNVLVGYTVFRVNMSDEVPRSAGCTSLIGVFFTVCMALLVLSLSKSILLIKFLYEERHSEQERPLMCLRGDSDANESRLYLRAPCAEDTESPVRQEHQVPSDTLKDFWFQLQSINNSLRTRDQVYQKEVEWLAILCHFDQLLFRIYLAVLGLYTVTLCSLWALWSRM

[5] = biological target: 5-hydroxytryptamine receptor 2A (Bos taurus, UniProt Q75Z89); assay: Binding affinity towards 5-hydroxytryptamine 2A receptor
Chain of 5-hydroxytryptamine receptor 2A (Q75Z89 whole entry): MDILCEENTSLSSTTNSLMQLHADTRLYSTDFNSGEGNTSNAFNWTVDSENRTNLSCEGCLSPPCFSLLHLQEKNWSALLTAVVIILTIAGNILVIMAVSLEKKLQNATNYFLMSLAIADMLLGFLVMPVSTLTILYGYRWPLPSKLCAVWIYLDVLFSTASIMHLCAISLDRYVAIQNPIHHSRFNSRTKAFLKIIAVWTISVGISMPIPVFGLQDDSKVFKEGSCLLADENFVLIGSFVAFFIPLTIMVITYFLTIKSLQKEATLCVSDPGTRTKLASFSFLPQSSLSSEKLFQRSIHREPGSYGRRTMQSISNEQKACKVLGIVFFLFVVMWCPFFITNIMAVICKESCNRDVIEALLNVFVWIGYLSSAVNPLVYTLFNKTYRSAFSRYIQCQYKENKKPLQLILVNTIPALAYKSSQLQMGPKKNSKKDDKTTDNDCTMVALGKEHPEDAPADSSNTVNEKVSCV

[6] = biological target: T3, 5-hydroxytryptamine receptor 1A (Homo sapiens, UniProt P08908); assay: Binding affinity for 5-hydroxytryptamine 1A receptor
T3 sequence (P08908 whole entry): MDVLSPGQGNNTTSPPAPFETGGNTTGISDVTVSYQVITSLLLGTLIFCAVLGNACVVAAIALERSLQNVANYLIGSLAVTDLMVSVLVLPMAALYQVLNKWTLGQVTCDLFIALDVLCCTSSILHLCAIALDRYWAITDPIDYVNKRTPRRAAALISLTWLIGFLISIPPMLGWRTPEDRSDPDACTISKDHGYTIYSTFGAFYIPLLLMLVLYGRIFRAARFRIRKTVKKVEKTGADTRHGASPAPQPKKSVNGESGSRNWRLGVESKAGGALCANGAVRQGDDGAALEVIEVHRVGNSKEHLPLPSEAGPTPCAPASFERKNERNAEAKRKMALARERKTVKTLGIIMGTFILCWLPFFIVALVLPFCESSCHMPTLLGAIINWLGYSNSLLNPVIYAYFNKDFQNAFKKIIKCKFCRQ

Chain of 5-hydroxytryptamine receptor 1B (P28564 whole entry): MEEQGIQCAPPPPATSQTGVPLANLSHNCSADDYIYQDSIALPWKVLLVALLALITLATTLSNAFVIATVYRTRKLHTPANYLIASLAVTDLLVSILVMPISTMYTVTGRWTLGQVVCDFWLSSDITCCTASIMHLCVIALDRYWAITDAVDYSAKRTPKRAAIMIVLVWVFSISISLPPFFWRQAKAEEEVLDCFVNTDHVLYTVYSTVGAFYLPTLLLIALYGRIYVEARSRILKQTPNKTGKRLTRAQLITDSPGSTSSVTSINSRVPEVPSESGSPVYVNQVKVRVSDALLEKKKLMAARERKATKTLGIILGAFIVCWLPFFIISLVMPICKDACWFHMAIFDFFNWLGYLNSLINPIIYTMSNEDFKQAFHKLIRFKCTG

| SMILES | IC50 [1] [µM] | IC50 [2] [µM] | IC50 [3] [µM] | IC50 [4] [µM] | IC50 [5] [µM] | IC50 [6] [µM] |
| --- | --- | --- | --- | --- | --- | --- |
| Cc1sc2c(nc(N3CCN(Cc4ccccc4)CC3)c3cccn32)c1C | > 100 | 155 | 525 | 3.63 | 174 | 126 |
| Fc1ccc(N2CCN(c3nc4ccsc4n4cccc34)CC2)cc1 | 70.8 | 72.4 | 275 | 97.7 | 447 | 43.7 |
| Clc1ccc(CN2CCN(c3nc4sccc4n4cccc34)CC2)c(Cl)c1 | 63.1 | 19.1 | 25.1 | 4.17 | 479 | 31.6 |
| FC(F)(F)c1cccc(N2CCN(c3nc4cc(-c5ccccc5)sc4n4cccc34)CC2)c1 | 1380 | 214 | > 100 | > 100 | > 100 | > 100 |
| C[N+]1(Cc2ccccc2)CCN(c2nc3ccsc3n3cccc23)CC1 | 40.7 | 15.5 | > 100 | 0.126 | 17.4 | 7.76 |
| CCOC(=O)CN1CCN(c2nc3ccsc3n3cccc23)CC1 | 0.676 | 61.7 | 100 | 4.07 | 70.8 | 0.257 |
| CCOC(=O)N1CCN(c2nc3ccsc3n3cccc23)CC1 |  | > 100 | 513 | 204 | 123 | 33.9 |
| Clc1ccc(C(c2ccccc2)N2CCN(c3nc4ccsc4n4cccc34)CC2)cc1 (stereo not given) | > 100 | 282 | > 100 | 1.38 | > 100 | 204 |

Stronger by IC50 [2], values ahead:

| IC50 [1] [µM] | IC50 [2] [µM] | IC50 [3] [µM] | IC50 [4] [µM] | IC50 [5] [µM] | IC50 [6] [µM] | SMILES |
| --- | --- | --- | --- | --- | --- | --- |
| 14.8 | 11.7 | 87.1 | 19.1 | 7.41 | 4.9 | CN1CCN(c2nc3cc(-c4ccccc4)sc3n3cccc23)CC1 |
| > 100 | 10 | 35.5 | 2.45 | 302 |  | c1ccc(-c2cc3nc(N4CCNCC4)c4cccn4c3s2)cc1 |
| > 100 | 8.32 | 251 | 1.48 | 14.5 | 0.407 | O=C(CN1CCN(c2nc3ccsc3n3cccc23)CC1)N1CCCC1 |
| 14.5 | 7.41 | 138 | 0.0214 | 22.4 | 0.347 | Fc1ccc(CN2CCN(c3nc4ccsc4n4cccc34)CC2)cc1 |
| 24 | 2.63 | 30.9 | 6.76 | 63.1 | 25.7 | c1ccc(CN2CCN(c3nc4scc(-c5ccccc5)c4n4cccc34)CC2)cc1 |
| > 100 | 2.19 | 60.3 | 21.4 | 13.8 | 15.5 | CN1CCN(c2nc3sc(-c4ccccc4)cc3n3cccc23)CC1 |
| 4.68 | 0.851 | 3.09 | 0.0166 | 7.41 | 0.661 | Clc1ccc(CN2CCN(c3nc4ccsc4n4cccc34)CC2)c(Cl)c1 |
| 10.2 | 0.355 | 2.57 | 0.0603 | 0.933 | 0.0617 | c1cc2c(N3CCN(CC4CC4)CC3)nc3ccsc3n2c1 |
| 0.575 | 0.17 | 0.38 | 0.00263 | 0.851 | 0.12 | C=CCN1CCN(c2nc3ccsc3n3cccc23)CC1 |
